Source: patent US10213429B2, “Imidazo-pyrazinyl derivatives useful as soluble guanylate cyclase activators” (Merck Sharp & Dohme Corp., priority 2015, dated 2019)

Target: T1, sGC α1/β1 heterodimer (Homo sapiens, UniProt Q02108+Q02153)
T1 construct: expressed in transfected cells; host or cells: CHO-K1 (clone #7, CHO-K1/sGC)
T1 sequence (Q02108 1-690): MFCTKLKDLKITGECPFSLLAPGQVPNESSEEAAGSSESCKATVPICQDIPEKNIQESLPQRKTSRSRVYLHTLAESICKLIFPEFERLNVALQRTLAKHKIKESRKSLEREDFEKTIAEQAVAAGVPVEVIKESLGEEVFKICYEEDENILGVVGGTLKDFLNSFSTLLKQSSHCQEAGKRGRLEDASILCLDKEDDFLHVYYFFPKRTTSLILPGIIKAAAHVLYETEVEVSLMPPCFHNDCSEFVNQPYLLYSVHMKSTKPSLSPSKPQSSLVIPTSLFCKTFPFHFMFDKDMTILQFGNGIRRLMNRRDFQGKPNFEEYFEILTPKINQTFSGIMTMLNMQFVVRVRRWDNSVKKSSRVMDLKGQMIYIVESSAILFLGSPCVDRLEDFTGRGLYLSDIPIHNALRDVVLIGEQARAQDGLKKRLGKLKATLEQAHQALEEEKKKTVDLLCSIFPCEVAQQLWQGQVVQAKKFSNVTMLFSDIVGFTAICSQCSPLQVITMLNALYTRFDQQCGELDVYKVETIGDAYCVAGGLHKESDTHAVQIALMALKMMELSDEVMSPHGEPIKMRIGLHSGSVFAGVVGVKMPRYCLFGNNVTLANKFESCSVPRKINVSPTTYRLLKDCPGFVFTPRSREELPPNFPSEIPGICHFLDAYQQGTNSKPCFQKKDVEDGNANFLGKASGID
T1 sequence (Q02153 1-619): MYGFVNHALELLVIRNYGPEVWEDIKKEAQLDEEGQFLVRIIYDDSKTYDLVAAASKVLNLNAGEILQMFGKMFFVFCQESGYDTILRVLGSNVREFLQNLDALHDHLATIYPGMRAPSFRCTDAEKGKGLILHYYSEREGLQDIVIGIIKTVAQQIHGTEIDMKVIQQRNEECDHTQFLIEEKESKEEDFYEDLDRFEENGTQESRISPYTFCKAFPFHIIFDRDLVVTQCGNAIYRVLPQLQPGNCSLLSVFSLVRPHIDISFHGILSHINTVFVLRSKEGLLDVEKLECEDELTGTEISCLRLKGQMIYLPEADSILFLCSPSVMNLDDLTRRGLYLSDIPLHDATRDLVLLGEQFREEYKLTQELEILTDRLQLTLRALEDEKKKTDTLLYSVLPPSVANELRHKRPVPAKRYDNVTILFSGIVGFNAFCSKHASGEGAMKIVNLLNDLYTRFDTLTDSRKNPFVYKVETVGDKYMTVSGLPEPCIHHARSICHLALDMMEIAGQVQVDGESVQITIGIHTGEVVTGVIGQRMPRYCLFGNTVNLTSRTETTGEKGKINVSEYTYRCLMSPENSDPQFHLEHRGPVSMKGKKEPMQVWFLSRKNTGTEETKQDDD
Assay: Cell-Based sGC Functional Assay (CASA Assay), cGMP by HTRF in CHO-K1/sGC cells
Settings: for Emax: CHO-K1, percent activation relative to maximum cGMP production of Compound A (= 100%), read-out: % Act.; for EC50: cGMP production, 1 hr at 37° C., 4P fit, presence or absence of 1 μM DETA-NO not given, read-out: IP (nM) (inflection point)
Text: Biological Assay 1: Cell-Based sGC Functional Assay (CASA Assay)
sGC is a heme-containing enzyme that converts GTP to secondary messenger cGMP. Increases in cGMP levels affect several physiological processes including vasorelaxation through multiple downstream pathways. […] Heme-dependent activators (HDAs) preferentially activate sGC containing a ferrous heme group. To determine the effect of sGC activators on enzyme activity, the CASA assay was developed to monitor the generation of cGMP in a cell line that stably expresses the heterodimeric sGC protein.
A CHO-K1 cell line stably expressing the sGC α1/β1 heterodimer was generated using a standard transfection protocol. CHO-K1 cells were transfected with plasmids pIREShyghsGCα1 and pIRESneo-hsGCβ1 simultaneously using FUGENE reagent. Clones that stably express both subunits were selected with hygromycin and neomycin for ˜2 weeks. Clone #7 was chosen for the assay and was designated CHO-K1/sGC. CHO-K1/sGC cells were maintained in F-K12 medium containing 10% heat-inactivated Fetal Bovine Serum (FBS), 100 μg/mL penicillin/streptomycin, 0.5 mg/mL hygromycin and 0.25 mg/mL G418. The cells were then cryopreserved in LN2. On the day of the assay, cells were thawed and resuspended in EBSS Assay Buffer (Sigma, E3024) supplemented with 5 mM MgCl2, 10 mM HEPES (4-(2-hydroxyethyl)piperazine-1-ethanesulfonic acid) and 0.05% BSA (bovine serum albumin) (EAB) and cell density was then adjusted to 4×10^5/mL with EAB. IBMX (3-isobutyl-1-methylxanthin, 0.5 mM) was added to inhibit degradation of cGMP. Compounds were diluted from DMSO stock solutions and added to the assay at a final DMSO concentration of 2.5%. Cells were incubated with compounds in the presence and absence of 1 μM of Diethylenetriamine/nitric oxide adduct (DETA-NO; Sigma, 17018) for 1 hr at 37° C. At the end of the incubation period, the reaction was terminated and the cells were lysed with the detection reagents from Cisbio Kits. The level of intracellular cGMP was determined using an HTRF-based assay kit (CisBio, 62GM2PEC), which detects the displacement of a fluorescence labeled cGMP from its specific antibody. The cGMP produced by test compounds was directly compared to the maximum cGMP production (this value was set to equal 100% activation.) of the published sGC-HDA Compound A:
[drawing 175] (Example 1 in WO 2010/065275, published Jun. 10, 2010). The test compounds' activities were then expressed as a percentage of Compound A, the standard in every experiment. This percent activation was calculated either in the presence or absence of DETA-NO which was then plotted. IP and maximum fold induction was derived using ADA analysis software for 4P fit.
The compounds in the Examples of the instant invention had inflection points (IP) less than or equal to 10 μM and most less than or equal to about 1 μM.

Emax [%] | EC50 [nM] | SMILES
128 | 107 | CCCCc1nc(-c2nc(O)c3c(n2)NC(=O)C3(c2ccc(F)c(F)c2)C2CC2)cn2ccnc12 (stereo not shown) [Example 19A, 2-(8-butylimidazo[1,2-a]pyrazin-6-yl)-5-cyclopropyl-5-(3,4-difluorophenyl)-4-hydroxy-5H-pyrrolo[2,3-d]pyrimidin-6(7H)-one]
139 | 462 | O=C1Nc2nc(-c3cn4ccnc4c(CCCC(F)(F)F)n3)nc(O)c2C1(c1ccc(F)c(F)c1)C1CC1 (stereo not shown) [Example 20A, 5-cyclopropyl-5-(3,4-difluorophenyl)-4-hydroxy-2-(8-(4,4,4-trifluorobutyl)imidazo[1,2-a]pyrazin-6-yl)-5H-pyrrolo[2,3-d]pyrimidin-6(7H)-one]
122 | 115 | CCCCc1nc(-c2nc(O)c3c(n2)NC(=O)C3(c2ccc(Cl)c(F)c2)C2CC2)cn2ccnc12 (stereo not shown) [Example 21A, 2-(8-butylimidazo[1,2-a]pyrazin-6-yl)-5-(4-chloro-3-fluorophenyl)-5-cyclopropyl-4-hydroxy-5H-pyrrolo[2,3-d]pyrimidin-6(7H)-one]
126 | 438 | O=C1Nc2nc(-c3cn4ccnc4c(CCCC(F)(F)F)n3)nc(O)c2C1(c1ccc(Cl)c(F)c1)C1CC1 (stereo not shown) [Example 22A, 5-(4-chloro-3-fluorophenyl)-5-cyclopropyl-4-hydroxy-2-(8-(4,4,4-trifluorobutyl)imidazo[1,2-a]pyrazin-6-yl)-5H-pyrrolo[2,3-d]pyrimidin-6(7H)-one]
153 | 240 | CCCCc1nc(-c2nc(O)c3c(n2)NC(=O)C3(c2ccc(Cl)cn2)C2CC2)cn2ccnc12 (stereo not shown) [Example 25A, 2-(8-butylimidazo[1,2-a]pyrazin-6-yl)-5-(5-chloropyridin-2-yl)-5-cyclopropyl-4-hydroxy-5H-pyrrolo[2,3-d]pyrimidin-6(7H)-one]
111 | 107 | CCCCc1nc(-c2nc(O)c3c(n2)NC(=O)C3(c2ccc(Cl)cc2F)C2CC2)cn2ccnc12 (stereo not shown) [Example 33A, 2-(8-butylimidazo[1,2-a]pyrazin-6-yl)-5-(4-chloro-2-fluorophenyl)-5-cyclopropyl-4-hydroxy-5H-pyrrolo[2,3-d]pyrimidin-6(7H)-one]
110 | 22 | CC1(c2ccc(Cl)cc2)C(=O)Nc2nc(-c3cn4ccnc4c(CCCC(F)(F)F)n3)ncc21 (stereo not shown) [Example 40A, 5-(4-chlorophenyl)-5-methyl-2-(8-(4,4,4-trifluorobutyl)imidazo[1,2-a]pyrazin-6-yl)-5H-pyrrolo[2,3-d]pyrimidin-6(7H)-one]
112 | 7 | CCCCc1nc(-c2ncc3c(n2)NC(=O)C3(c2ccc(F)c(F)c2)C2CC2)cn2ccnc12 (stereo not shown) [Example 43A, 2-(8-butylimidazo[1,2-a]pyrazin-6-yl)-5-cyclopropyl-5-(3,4-difluorophenyl)-5H-pyrrolo[2,3-d]pyrimidin-6(7H)-one]
93 | 5 | CCCCc1nc(-c2ncc3c(n2)NC(=O)C3(c2ccc(Cl)cc2F)C2CC2)cn2ccnc12 (stereo not shown) [Example 45A, 2-(8-butylimidazo[1,2-a]pyrazin-6-yl)-5-(4-chloro-2-fluorophenyl)-5-cyclopropyl-5H-pyrrolo[2,3-d]pyrimidin-6(7H)-one]
135 | 10 | O=C1Nc2nc(-c3cn4ccnc4c(CCCC(F)(F)F)n3)ncc2C1(c1ccc(Cl)cc1F)C1CC1 (stereo not shown) [Example 46A, 5-(4-chloro-2-fluorophenyl)-5-cyclopropyl-2-(8-(4,4,4-trifluorobutyl)imidazo[1,2-a]pyrazin-6-yl)-5H-pyrrolo[2,3-d]pyrimidin-6(7H)-one]
123 | 11 | CCCCc1nc(-c2ncc3c(n2)NC(=O)C3(c2ccc(Cl)c(F)c2)C2CC2)cn2ccnc12 (stereo not shown) [Example 47A, 2-(8-butylimidazo[1,2-a]pyrazin-6-yl)-5-(4-chloro-3-fluorophenyl)-5-cyclopropyl-5H-pyrrolo[2,3-d]pyrimidin-6(7H)-one]
130 | 24 | O=C1Nc2nc(-c3cn4ccnc4c(CCCC(F)(F)F)n3)ncc2C1(c1ccc(Cl)c(F)c1)C1CC1 (stereo not shown) [Example 48A, 5-(4-chloro-3-fluorophenyl)-5-cyclopropyl-2-(8-(4,4,4-trifluorobutyl)imidazo[1,2-a]pyrazin-6-yl)-5H-pyrrolo[2,3-d]pyrimidin-6(7H)-one]
98 | 56 | CCCCc1nc(-c2ncc3c(n2)NC(=O)C3(c2ccc(OC(F)(F)F)cc2)C2CC2)cn2ccnc12 (stereo not shown) [Example 51A, 2-(8-butylimidazo[1,2-a]pyrazin-6-yl)-5-cyclopropyl-5-(4-(trifluoromethoxy)phenyl)-5H-pyrrolo[2,3-d]pyrimidin-6(7H)-one]
125 | 220 | O=C1Nc2nc(-c3cn4ccnc4c(CCC(F)(F)C(F)(F)F)n3)ncc2C1(c1ccc(F)cn1)C1CC1 (stereo not shown) [Example 53A, 5-cyclopropyl-5-(5-fluoropyridin-2-yl)-2-(8-(3,3,4,4,4-pentafluorobutyl)imidazo[1,2-a]pyrazin-6-yl)-5H-pyrrolo[2,3-d]pyrimidin-6(7H)-one]
90 | 981 | CCCc1nc(-c2ncc3c(n2)NC(=O)C3(C)c2ccc(Cl)cn2)cn2ccnc12 (stereo not shown) [Example 57A, 5-(5-chloropyridin-2-yl)-5-methyl-2-(8-propylimidazo[1,2-a]pyrazin-6-yl)-5H-pyrrolo[2,3-d]pyrimidin-6(7H)-one]
150 | 81 | CC1(c2ccc(Cl)cn2)C(=O)Nc2nc(-c3cn4ccnc4c(CC4CCC4)n3)ncc21 (stereo not shown) [Example 58A, 5-(5-chloropyridin-2-yl)-2-(8-(cyclobutylmethyl)imidazo[1,2-a]pyrazin-6-yl)-5-methyl-5H-pyrrolo[2,3-d]pyrimidin-6(7H)-one]
126 | 30 | O=C1Nc2nc(-c3cn4ccnc4c(CCCC(F)(F)F)n3)ncc2C1(c1ccc(F)cc1)C1CC1 (stereo not shown) [Example 60B, 5-cyclopropyl-5-(4-fluorophenyl)-2-(8-(4,4,4-trifluorobutyl)imidazo[1,2-a]pyrazin-6-yl)-5H-pyrrolo[2,3-d]pyrimidin-6(7H)-one]
